# Data: patent publication US20260240832A1, “USE OF NITROXOLINE COMPOUND IN ENHANCING EFFECT OF ANTIBACTERIAL AGENT” (Jiangsu Yahong Meditech Co., Ltd., priority 2022, published 2026)
# Like-named read-outs stand apart in the source and are kept apart here.
# Test system: carbapenem-resistant Acinetobacter baumannii
# Assay: Chessboard microbroth dilution MIC/FIC, compound 1 in combination with polymyxin
# Assay type: cell-based
# Details: for MIC: Acinetobacter baumannii, read-out: Compound 1 MIC alone; for Compound 1 MIC in combination: with polymyxin
# Text: This experiment is designed to determine the minimum inhibitory concentration (MIC) of compound 1 in combination with polymyxin against carbapenem-resistant Acinetobacter baumannii and to calculate the fractional inhibitory concentration (FIC) index.
# Test bacteria: 10 strains of carbapenem-resistant Acinetobacter baumannii are clinically isolated strains, and are provided by Shanghai Junji Medical Laboratory Co., Ltd.
# According to the recommendation of the Clinical and Laboratory Standards Institute (CLSI), the microbroth dilution method designed by the chessboard method was used to determine the minimum inhibitory concentration (MIC) of compound 1 in combination with polymyxin against the above strains, and the fractional inhibitory concentration (FIC) index was calculated.
# Compound 1 was dissolved in dimethyl sulfoxide to obtain a stock solution I with a concentration of 51200 mg/L. The stock solution I was subjected to 1:1 gradient dilution with dimethyl sulfoxide to obtain a dilution solution with a concentration range of 51200 to 25 mg/L. The corresponding concentrations were added to sterile water for 100-fold dilution to obtain working solution I with a concentration range of 512 to 0.25 mg/L.
# Polymyxin was dissolved in sterile water to obtain a stock solution with a concentration of 5120 mg/L. The polymyxin stock solution was subjected to 1:1 gradient dilution with sterile water to obtain a working solution II with a concentration range of 512 to 0.25 mg/L.
# According to the method in Example 1, a drug sensitive plate was prepared with working solution I and working solution II, and the specific process will not be repeated here.
# (2) The culture medium of the bacterial solution: Cation-Adjusted Mueller-Hinton Broth (CAMHB), a product of BBL, USA, batch number 9015952.
# (3) Formulation method of bacterial solution: According to the direct colony suspension method, the test bacteria cultured overnight were prepared into a 0.5 McFarland turbidity tube using physiological saline. Then, the resulting solution was dilute 100 times with the above culture medium. 100 μL of the resulting bacterial solution was mixed well with the solution (100 μL) in each well of the drug sensitivity plate, and the final inoculation amount was 10^5 CFU/mL.
# (4) Culture conditions: Culturing at 35±2° C. for 20 hours in air.
# (1) The experimental results were determined according to the standard of CLSI 2020 M100 30th edition.
# wherein: FIC≤0.5 indicates synergistic effect; 0.5<FIC≤1.0 indicates additive effect; 1<FIC≤2.0 indicates irrelevant effect; and FIC>2 indicates antagonistic effect.
# [1] = strain 18-J11-001, compound 1 + polymyxin
# [2] = strain 18-J11-002, compound 1 + polymyxin
# [3] = strain 18-J11-034, compound 1 + polymyxin
# [4] = strain 18-J11-097, compound 1 + polymyxin
# [5] = strain 18-J15-030, compound 1 + polymyxin
# [6] = strain 18-J21-095, compound 1 + polymyxin
# [7] = strain 18-J24-015, compound 1 + polymyxin
# [8] = strain 18-J24-033, compound 1 + polymyxin
# [9] = strain 18-J40-021, compound 1 + polymyxin
# [10] = strain 18-J51-052, compound 1 + polymyxin
compound,measurement,setting,value
"O=[N+]([O-])c1c(Br)c(Cl)c2cccnc2c1O [Compound 1, 6-bromo-5-chloro-7-nitroquinolin-8-ol]",MIC,strain 18-J11-001,8 µg/mL
same,MIC,strain 18-J11-002,4 µg/mL
same,MIC,strain 18-J11-034,4 µg/mL
same,MIC,strain 18-J11-097,4 µg/mL
same,MIC,strain 18-J15-030,16 µg/mL
same,MIC,strain 18-J21-095,8 µg/mL
same,MIC,strain 18-J24-015,8 µg/mL
same,MIC,strain 18-J24-033,4 µg/mL
same,MIC,strain 18-J40-021,8 µg/mL
same,MIC,strain 18-J51-052,4 µg/mL
same,change of the MIC of polymyxin by the combination,compound 1 + polymyxin,significantly reduce
same,effect of the combination (summary of Table 2),compound 1 + polymyxin,synergistic effect (FIC≤0.5 indicates synergistic effect)
same,FIC index,[1],0.303
same,Results,[1],Synergistic
same,Compound 1 MIC in combination,strain 18-J11-001,0.5 µg/mL
same,FIC index,[2],0.740
same,Results,[2],Additive
same,Compound 1 MIC in combination,strain 18-J11-002,2 µg/mL
same,FIC index,[3],0.500
same,Results,[3],Synergistic
same,Compound 1 MIC in combination,strain 18-J11-034,1 µg/mL
same,FIC index,[4],0.365
same,Results,[4],Synergistic
same,Compound 1 MIC in combination,strain 18-J11-097,0.5 µg/mL
same,FIC index,[5],0.313
same,Results,[5],Synergistic
same,Compound 1 MIC in combination,strain 18-J15-030,1 µg/mL
same,FIC index,[6],0.740
same,Results,[6],Additive
same,Compound 1 MIC in combination,strain 18-J21-095,4 µg/mL
same,FIC index,[7],0.375
same,Results,[7],Synergistic
same,Compound 1 MIC in combination,strain 18-J24-015,1 µg/mL
same,FIC index,[8],0.500
same,Results,[8],Synergistic
same,Compound 1 MIC in combination,strain 18-J24-033,1 µg/mL
same,FIC index,[9],0.250
same,Results,[9],Synergistic
same,Compound 1 MIC in combination,strain 18-J40-021,1 µg/mL
same,FIC index,[10],0.750
same,Results,[10],Additive
same,Compound 1 MIC in combination,strain 18-J51-052,2 µg/mL
